Measured values reported in PubChem BioAssay (NCI).
“And” between values parts separate entries of the source, which are not always exact repeats. Identical values can stand only once.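 Method: 48-hour compound exposure of cells in 96-well plates, five concentrations, linear interpolation of endpoints. Abbreviation: GI50, concentration required for 50% inhibition of growth. TGI marks complete inhibition of growth.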

Key:
Assay in all cases: growth of human tumour cells (NCI), 48 h
SK-OV-3 ovarian = system: SK-OV-3 ovarian
EKVX NSCLC = system: EKVX NSCLC
SNB-75 CNS = system: SNB-75 CNS
NCI-H460 lung = system: NCI-H460 lung
SF-268 CNS = system: SF-268 CNS
ACHN renal = system: ACHN renal
CAKI-1 renal = system: CAKI-1 renal
RPMI-8226 leukemia = system: RPMI-8226 leukemia
SNB-19 CNS = system: SNB-19 CNS
HCT-15 colon = system: HCT-15 colon

Row | SMILES | TGI (SK-OV-3 ovarian) | TGI (EKVX NSCLC) | TGI (SNB-75 CNS) | TGI (NCI-H460 lung) | TGI (SF-268 CNS) | TGI (ACHN renal) | TGI (CAKI-1 renal) | TGI (RPMI-8226 leukemia) | TGI (SNB-19 CNS) | TGI (HCT-15 colon) | GI50 (SK-OV-3 ovarian) | GI50 (EKVX NSCLC) | GI50 (SNB-75 CNS) | GI50 (NCI-H460 lung) | GI50 (SF-268 CNS) | GI50 (ACHN renal) | GI50 (CAKI-1 renal) | GI50 (RPMI-8226 leukemia) | GI50 (SNB-19 CNS) | GI50 (HCT-15 colon)
1 | COc1cc2c(cc1OC)[C@@H]([C@H](O)c1ccccc1)NCC2 | > 100 µM | > 100 µM | > 100 µM | > 100 µM | > 100 µM | > 100 µM | > 100 µM | > 100 µM | > 100 µM | > 100 µM | – | – | – | – | – | – | – | – | – | –
2 | COc1ccc2c(c1)CCN1C3=C(CCC3)C(=O)C[C@@H]21 | > 100 µM | > 100 µM | > 100 µM | > 100 µM | > 100 µM | > 100 µM | > 100 µM | > 100 µM | > 100 µM | > 100 µM | – | – | – | – | – | – | – | – | – | –
3 | CC1(C)CC(=O)c2c(ccc(C(=O)C[C@@H](N)CO)c2N)O1 | > 100 µM | > 100 µM | > 100 µM | > 100 µM | > 89.5 µM | > 100 µM | 23.7 µM | 21.4 µM | > 100 µM | 12.2 µM | 7.32 µM | 19 µM | 17.7 µM | 0.166 µM | 0.667 µM | 1.25 µM | 0.564 µM | 1.56 µM | 0.749 µM | 0.177 µM
4 | CCN(CC)CCCNc1[nH]ncc2c(C)c3nc4ccccc4c3cc12 | 2.75 µM and 12.6 µM | 3.44 µM and 8.38 µM | 1.99 µM and 5.3 µM | 1.36 µM and 2.69 µM | 3.16 µM and 7.67 µM | 11.6 µM and 9.15 µM | 18.1 µM and 17.7 µM | 4.92 µM and 5.62 µM | 5.96 µM and 4.79 µM | 21.4 µM and 36.5 µM | 1.31 µM | 0.887 µM | 0.64 µM | 0.22 µM | 0.493 µM and 1.09 µM | – | 4.07 µM | 1.51 µM and 0.99 µM | 0.857 µM | 6.54 µM
5 | C[C@@](O)(/C=C/[C@H]1CC=CC(=O)O1)[C@@H](C[C@@H](O)\C=C/C=C\C=C\CO)OP(=O)(O)O | 31.4 µM | 65.6 µM and 49.1 µM | – | 63.6 µM and 78.5 µM | 83.2 µM and 99.1 µM | 20.4 µM | 4.66 µM | 8.5 µM | 92.6 µM and 184 µM | 55.9 µM and 79.4 µM | – | 14.7 µM | 315 µM and 39.4 µM | 14.2 µM | 12.2 µM | – | – | – | 20.7 µM | 11.4 µM
6 | Clc1ccc(C2=NOC3C4CCC(C4)C23)cc1 (centres undefined) | > 100 µM | > 100 µM | > 100 µM | > 100 µM | > 100 µM | > 100 µM | > 100 µM | > 100 µM | > 100 µM | > 100 µM | – | – | – | – | – | – | – | – | – | –
7 | Brc1ccc(C2SCc3nc4ccccc4n32)cc1 (centres undefined) | 37.7 µM | 33.8 µM | 0.745 µM | 27.3 µM | 32.9 µM | 40.2 µM | 43 µM | 28.6 µM | 9.02 µM | 24.3 µM | – | – | – | – | – | – | – | – | – | –
8 | COc1ccc(Oc2cc(NCCC(F)(F)F)c3ncc(-c4ccc(C(=O)NC5CC5)c(C)c4)n3n2)c(F)c1F | 27.2 µM | > 100 µM | 31.1 µM | > 54 µM | > 100 µM | 30.2 µM | > 100 µM | > 100 µM | > 72.4 µM | > 100 µM | 0.399 µM | 2.53 µM | 1.61 µM | < 0.01 µM | 4.98 µM | 0.304 µM | 0.365 µM | 0.656 µM | 5.73 µM | < 0.01 µM
9 | CCCCCSC1C2C(=O)C(Br)=CC13CCNc1c(O)c4c5c(c13)=[N+]2CCC=5C=N4 (centres undefined) | 6.43 µM | 5.07 µM | 4.56 µM | 4.32 µM | 5.34 µM | 3.97 µM | 4.79 µM | 11 µM | 4.97 µM | 6.09 µM | 3.22 µM | 1.82 µM | 2.35 µM | 1.13 µM | 2.1 µM | 1.75 µM | 2.47 µM | 3.65 µM | 2.69 µM | 2.04 µM
10 | COC(=O)/C(=C\c1c(-c2ccccc2)[nH]c2ccccc12)S(C)(=O)=O | 75.5 µM | > 100 µM | 9.61 µM | 14.2 µM | 18.3 µM | 23.8 µM | 82.6 µM | 96.4 µM | > 100 µM | 12.1 µM | 12.1 µM | 8.92 µM | 2.26 µM | 3.54 µM | 4.32 µM | 9.18 µM | 1.83 µM | 6.15 µM | 8.68 µM | 2.35 µM
11 | C[n+]1c(/C=C/c2ccc(/C=N/NC(=O)c3ccc(C(=O)N/N=C/c4ccc(/C=C/c5cn6ccccc6[n+]5C)cc4)cc3)cc2)cn2ccccc21 | > 100 µM | > 100 µM | > 100 µM | > 100 µM | > 100 µM | > 100 µM | > 100 µM | > 100 µM | > 100 µM | > 100 µM | – | – | – | – | – | – | – | – | – | –
12 | Cc1ccc(C)c2c(N=Nc3ccccc3[N+](=O)[O-])c(O)[nH]c12 | > 100 µM | > 100 µM | > 100 µM | > 100 µM | > 100 µM | > 100 µM | > 100 µM | > 100 µM | > 100 µM | > 100 µM | – | – | – | – | – | – | – | – | – | –
13 | CNC(=O)c1cc2c(Oc3ccc(NC(=S)NC(=O)Cc4ccccc4)cc3F)ccnc2cc1OC | > 100 µM | > 100 µM | 4.68 µM | > 100 µM | > 100 µM | > 100 µM | > 100 µM | > 100 µM | > 100 µM | > 100 µM | 5.24 µM | > 100 µM | 0.183 µM | > 100 µM | 4.51 µM | 3.5 µM | 4.23 µM | > 28.3 µM | > 100 µM | 4.7 µM
14 | Clc1ccc(N2CCC(N3CCCC3)CC2)cc1-c1nc2ccccc2[nH]1 | > 67.9 µM | > 100 µM | 39 µM | 50.1 µM | 31.8 µM | 67.4 µM | 50 µM | 53.8 µM | > 100 µM | 38.5 µM | 24.5 µM | 37.9 µM | 15.5 µM | 22.9 µM | 15.4 µM | 26.7 µM | 19.3 µM | 20.9 µM | 33.7 µM | 18.7 µM
15 | CCCC#CCOC(=O)c1cc([N+](=O)[O-])cc([N+](=O)[O-])c1 | > 100 µM | > 100 µM | > 100 µM | > 100 µM | > 100 µM | > 100 µM | > 100 µM | > 100 µM | > 100 µM | > 100 µM | – | – | – | – | – | – | – | – | – | –
